Results as given in publication PMC2248166, “Quantitative peptide binding motifs for 19 human and mouse MHC class I molecules derived using positional scanning combinatorial peptide libraries” (Immunome Research, 2008).

How the values were obtained:
Type in all cases: binding
HLA A*3201 = HLA A*3201 (Homo sapiens, UniProt P04439, A270S/D101S/D185E/E176V/E277Q/F133L/G103R/G107R/G231S/H175R/I121M/I218V/I322F/K168Q/L105A/L300P/L318F/M331R/P208A/P217A/Q94H/R106L/R138Q/S129P/T104I/T323A/T345S/V100E/V321M/V358M); test: biochemical
HLA B*5401 = HLA B*5401 (Homo sapiens, UniProt P01889, A329T/C349S/D138N/D201E/E176V/E187T/E204Q/E69G/I76V/K202T/L119W/R155S/R180L/S121T/S35A/S48A/V127L/V306I/V36M/Y140L)
HLA B*5101 = HLA B*5101 (Homo sapiens, UniProt P01889, A329T/A93T/A95T/C349S/D138N/D201E/D98Y/E187L/E204Q/E69T/G107R/I218V/K202T/L105A/L119W/N104I/Q94N/R106L/R155S/R180L/S101N/S121T/S35A/S48A/V306I/V36M/Y195H/Y91F)
HLA B*5801 = HLA B*5801 (Homo sapiens, UniProt P01889, A329T/C349S/D201E/D98Y/E176V/E187L/E204Q/E69T/G107R/I218V/I90N/K202T/L105A/L119I/N104I/N87E/Q89R/Q94S/R106L/R155S/R180L/R86G/S101N/S121R/S35A/S48A/T118I/V127L/V306I/V36M/Y140S/Y91M)
H-2 D^b = H-2 D^b (Mus musculus, UniProt P01899)
HLA B*5802 = HLA B*5802 (Homo sapiens, UniProt P01889, A329T/C349S/D201E/D98Y/E176V/E187L/E204Q/E69T/G107R/I218V/I90N/K202T/L105A/N104I/N87E/Q89R/Q94S/R106L/R155S/R180L/R86G/S101N/S121W/S35A/S48A/V127L/V306I/V36M/Y140S/Y91M)
H-2 K^d = H-2 K^d (Mus musculus, UniProt P01902)
HLA A*3001 = HLA A*3001 (Homo sapiens, UniProt P04439, D140H/D185E/E176W/F33S/G80R/H175R/K168Q/R138E/R41S); test: biochemical
H-2 D^d = H-2 D^d (Mus musculus, UniProt P01900)
HLA B*3501 = HLA B*3501 (Homo sapiens, UniProt P01889, A329T/A93T/A95T/C349S/D201E/D98Y/E176V/E187L/E204Q/E69T/I218V/K202T/L119I/Q94N/R155S/R180L/S121R/S35A/S48A/T118I/V127L/V306I/V36M/Y140S/Y91F)
HLA B*1503 = HLA B*1503 (Homo sapiens, UniProt P01889, A329T/A93T/A95T/C349S/D201E/D98Y/E187L/E204Q/K202T/N87E/Q94N/R155S/R180L/S121R/S35A/V306I/V36M/Y140S/Y91S); test: biochemical
HLA B*1501 = HLA B*1501 (Homo sapiens, UniProt P01889, A329T/A93T/A95T/C349S/D201E/D98Y/E187L/E204Q/E69M/E70A/K202T/N87E/Q94N/R155S/R180W/S121R/S35A/S48A/V306I/V36M/Y140S/Y91S); test: biochemical
HLA B*5301 = HLA B*5301 (Homo sapiens, UniProt P01889, A329T/A93T/A95T/C349S/D201E/D98Y/E176V/E187L/E204Q/E69T/G107R/I218V/K202T/L105A/L119I/N104I/Q94N/R106L/R155S/R180L/S101N/S121R/S35A/S48A/T118I/V127L/V306I/V36M/Y140S/Y91F)
H-2 K^k = H-2 K^k (Mus musculus, UniProt P04223)
HLA A*6802 = HLA A*6802 (Homo sapiens, UniProt P04439, A269V/D140Y/D185E/E176V/E277Q/E87N/F33Y/G231S/I121R/I166T/I218V/L180W/L300P/L318F/N151K/P208A/P217A/Q86R/R138H/R169H/S129P/T345S/V36M)
HLA B*0801 = HLA B*0801 (Homo sapiens, UniProt P01889, A93T/A95T/D138N/E176V/E187T/K202T/Q94N/R180D/S35A/V36M/Y33D/Y91F); test: biochemical

H-2 K^k, sequence (P01887 21-119): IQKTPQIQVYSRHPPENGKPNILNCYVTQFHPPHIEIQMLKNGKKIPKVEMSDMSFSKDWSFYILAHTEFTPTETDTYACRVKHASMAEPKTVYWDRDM
H-2 K^k, sequence (P04223 22-369): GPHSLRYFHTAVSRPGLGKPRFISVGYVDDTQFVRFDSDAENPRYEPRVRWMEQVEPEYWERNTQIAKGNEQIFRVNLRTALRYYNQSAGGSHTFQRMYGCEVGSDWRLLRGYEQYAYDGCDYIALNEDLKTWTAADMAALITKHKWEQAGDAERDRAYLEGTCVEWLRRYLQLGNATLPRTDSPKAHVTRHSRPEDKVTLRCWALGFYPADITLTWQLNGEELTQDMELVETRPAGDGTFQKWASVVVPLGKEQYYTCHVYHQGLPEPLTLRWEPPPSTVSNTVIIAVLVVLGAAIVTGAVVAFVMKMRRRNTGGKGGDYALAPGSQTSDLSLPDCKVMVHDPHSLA
H-2 D^b, sequence (P01887 21-119): as the sequence (P01887 21-119) above
H-2 D^b, sequence (P01899 25-362): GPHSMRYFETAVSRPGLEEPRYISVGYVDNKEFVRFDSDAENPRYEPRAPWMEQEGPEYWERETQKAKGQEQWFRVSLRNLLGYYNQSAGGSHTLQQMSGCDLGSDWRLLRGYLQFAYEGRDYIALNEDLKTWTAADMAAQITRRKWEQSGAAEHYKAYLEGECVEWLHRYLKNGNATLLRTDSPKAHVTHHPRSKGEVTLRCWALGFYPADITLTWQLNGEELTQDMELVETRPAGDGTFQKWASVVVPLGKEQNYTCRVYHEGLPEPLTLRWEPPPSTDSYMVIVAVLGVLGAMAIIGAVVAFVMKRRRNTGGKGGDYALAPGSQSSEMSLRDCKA
H-2 K^d, sequence (P01887 21-119): as the sequence (P01887 21-119) above
H-2 K^d, sequence (P01902 22-368): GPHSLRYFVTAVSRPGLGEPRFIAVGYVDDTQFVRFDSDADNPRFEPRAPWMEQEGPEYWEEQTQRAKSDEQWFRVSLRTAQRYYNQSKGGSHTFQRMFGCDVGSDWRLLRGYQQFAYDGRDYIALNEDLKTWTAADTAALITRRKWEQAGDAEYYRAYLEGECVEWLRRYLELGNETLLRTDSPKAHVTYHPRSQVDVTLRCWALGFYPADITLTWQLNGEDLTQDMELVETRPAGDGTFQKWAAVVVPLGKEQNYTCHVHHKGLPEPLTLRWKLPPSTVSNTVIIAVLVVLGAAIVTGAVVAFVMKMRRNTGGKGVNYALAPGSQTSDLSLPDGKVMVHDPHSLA
H-2 D^d, sequence (P01900 whole entry, looked up): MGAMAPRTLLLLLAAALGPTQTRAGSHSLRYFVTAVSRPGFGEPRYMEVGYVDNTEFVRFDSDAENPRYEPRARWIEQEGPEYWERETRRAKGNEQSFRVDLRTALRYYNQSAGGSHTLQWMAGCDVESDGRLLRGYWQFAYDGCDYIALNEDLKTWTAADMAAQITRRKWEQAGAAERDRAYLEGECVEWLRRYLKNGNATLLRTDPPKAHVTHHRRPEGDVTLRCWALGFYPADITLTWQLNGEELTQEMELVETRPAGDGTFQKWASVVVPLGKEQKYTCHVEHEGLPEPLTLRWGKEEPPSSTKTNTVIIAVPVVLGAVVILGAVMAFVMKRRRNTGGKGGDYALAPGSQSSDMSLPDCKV

Sequence | Normalized average relative binding affinity(ARB) (HLA A*3201) | Normalized average relative binding affinity(ARB) (HLA B*5401) | Normalized average relative binding affinity(ARB) (HLA B*5101) | Normalized average relative binding affinity(ARB) (HLA B*5801) | Normalized average relative binding affinity(ARB) (H-2 D^b) | Normalized average relative binding affinity(ARB) (HLA B*5802) | Normalized average relative binding affinity(ARB) (H-2 K^d) | Normalized average relative binding affinity(ARB) (HLA A*3001) | Normalized average relative binding affinity(ARB) (H-2 D^d) | Normalized average relative binding affinity(ARB) (HLA B*3501) | Normalized average relative binding affinity(ARB) (HLA B*1503) | Normalized average relative binding affinity(ARB) (HLA B*1501) | Normalized average relative binding affinity(ARB) (HLA B*5301) | Normalized average relative binding affinity(ARB) (H-2 K^k) | Normalized average relative binding affinity(ARB) (HLA A*6802) | Normalized average relative binding affinity(ARB) (HLA B*0801)
XXXXXXXYX [3064.0160] | 0.24 | 0.0018 | 0.67 | 0.42 | 0.97 | 1.0 | 0.56 | 1.0 | 0.40 | 0.16 | 0.17 | 0.20 | 0.23 | 0.38 | 0.22 | 0.13
XXXXXFXXX [3064.0105] | 0.90 | 0.30 | 1.0 | 0.51 | 0.70 | 0.36 | 0.39 | 1.0 | 0.79 | 1.0 | 1.0 | 1.0 | 0.86 | 1.0 | 1.0 | 1.0
XXXXLXXXX [3064.0090] | 0.57 | 0.15 | 0.30 | 0.25 | 0.10 | 0.063 | 0.18 | 0.14 | 0.28 | 0.23 | 0.090 | 0.69 | 0.18 | 0.11 | 0.43 | 0.062
XXXXHXXXX [3064.0087] | 0.14 | 0.19 | 0.35 | 0.21 | 0.066 | 0.74 | 0.064 | 0.14 | 0.64 | 0.19 | 0.32 | 0.66 | 0.091 | 0.022 | 0.46 | 0.65
XXXXAXXXX [3064.0081] | 0.14 | 0.29 | 1.0 | 0.28 | 0.046 | 0.56 | 0.37 | 0.48 | 0.37 | 0.57 | 1.0 | 0.64 | 0.13 | 0.14 | 0.48 | 0.029
XXXXXDXXX [3064.0103] | 0.16 | 0.045 | 0.064 | 0.36 | 0.29 | 0.15 | 0.066 | 0.016 | 0.29 | 0.13 | 0.19 | 0.18 | 0.15 | 0.37 | 0.69 | 0.0089
